Experimental data taken from patent publication US8039490B2, “Benzoyl-piperidine derivatives as dual modulators of the 5-HT2A and D3 receptors” (Hoffmann-La Roche Inc., priority 2006, dated 2011).
“And” between values parts separate entries of the source, which are not always exact repeats. Identical values can stand only once.

Legend:
[1] = biological target: T1, human 5-HT2A serotonin receptor (Homo sapiens, UniProt P28223); assay: Radioligand binding, human 5-HT2A receptor ([3H]-ketanserin); details: second value of the cell; membranes of transfected HEK-293 EBNA cells, 1.1 nM [3H]-ketanserin; read-out: Ki(nM) D3/5HT2A/D2: 5HT2A
T1 construct: expressed in transfected cells; host or cells: HEK-293 EBNA cells (transient transfection), membrane preparation
T1 sequence (P28223 whole entry): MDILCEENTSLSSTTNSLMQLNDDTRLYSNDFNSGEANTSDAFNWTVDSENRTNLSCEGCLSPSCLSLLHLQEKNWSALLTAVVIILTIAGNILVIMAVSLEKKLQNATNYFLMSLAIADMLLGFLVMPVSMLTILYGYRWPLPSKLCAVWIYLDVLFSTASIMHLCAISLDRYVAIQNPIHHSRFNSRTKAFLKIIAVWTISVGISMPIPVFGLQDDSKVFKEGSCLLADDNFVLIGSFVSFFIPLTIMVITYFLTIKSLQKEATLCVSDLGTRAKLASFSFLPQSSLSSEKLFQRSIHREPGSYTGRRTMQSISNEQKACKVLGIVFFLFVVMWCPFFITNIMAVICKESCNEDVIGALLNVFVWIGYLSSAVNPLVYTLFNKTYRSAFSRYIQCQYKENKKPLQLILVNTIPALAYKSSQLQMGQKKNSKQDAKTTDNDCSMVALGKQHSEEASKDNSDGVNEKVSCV
Procedure: (§1) The cells were harvested 48 h post-transfection, washed three times with cold PBS and stored at −80° C. prior to use. The pellet was suspended in cold 50 mM Tris-HCl buffer containing 10 mM EDTA (pH 7.4) and homogenized with a Polytron (Kinematica AG, Basel, Switzerland) for 20-30 sec at 12.000 rpm. After centrifugation at 48.000×g for 30 min at 4° C., the pellet was resuspended in cold 10 mM Tris-HCl buffer containing 0.1 mM EDTA (pH 7.4), homogenized, and centrifuged as above. This pellet was further resuspended in a smaller volume of ice cold 10 mM Tris-HCl buffer containing 0.1 mM EDTA (pH 7.4) and homogenized with a Polytron for 20-30 sec at 12.000 rpm. The protein content of this homogenate was determined with the Bio-Rad (Bradford) Protein Assay (Biorad Laboratories GmbH, München, Germany) according to the instructions of the manufacturer using gamma globulin as the standard. This homogenate was stored at −80° C. in aliquots and thawed immediately prior to use.
(§2) Aliquots of membrane preparations were thawed at RT, resupended in assay buffer (D2, D3: 50 mM Tris-HCl, 120 mM NaCl, 5 mM MgCl2, 1 mM EDTA, 5 mM KCl, 1.5 mM CaCl2, pH=7.4; 5-HT2A: 50 mM Tris-HCl, 10 mM MgCl2, 1 mM EGTA, pH=7.4), homogenized with a Polytron for 20-30 sec at 12.000 rpm and adjusted to a final concentration of approximately 7.5 μg protein/well (D2, D3) and 15 μg protein/well (5-HT2A), respectively.
(§3) The binding affinity (Ki) of the compounds was determined using radioligand binding. […] The nonspecific binding was determined with equally composed reaction mixtures in the presence of 10 μM unlabelled spiperone. Per well 45 μl of Microscint 40 (Perkin Elmer, Schwerzenbach, Switzerland) was added, plates for sealed, shaken for 20 min and counted for 3 min on a Topcount Microplate Scintillation Counter (Canberra Packard SA, Zürich, Switzerland) with quenching correction.
(§4) The CPM value for each duplicate of a concentration of competing compound was averaged (y1), then the % specific binding was calculated according to the equation (((y1−non-specific)/(total binding-non-specific))×100). Graphs were plotted with the % specific binding using XLfit, a curve fitting program that iteratively plots the data using Levenburg Marquardt algorithm. The single site competition analysis equation used was y=A+((B−A)/(+((x/C)^D))), where y is the % specific binding, A is the minimum y, B is the maximum y, C is the IC50, x is the log10 of the concentration of the competing compound and D is the slope of the curve (the Hill Coefficient). […] The affinity constant (Ki) was calculated using the Cheng-Prusoff equation KI =(IC50/1+([L]/Kd), where [L] is the concentration of radioligand and Kd is the dissociation constant of the radioligand at the receptor as determined by the saturation isotherm.

[2] = biological target: T2, human D3 dopamine receptor (Homo sapiens, UniProt P35462); assay: Radioligand binding, human D3 receptor ([3H]-spiperone); details: first value of the cell; membranes of transfected HEK-293 EBNA cells, 0.5 nM [3H]-spiperone; read-out: Ki(nM) D3/5HT2A/D2: D3
T2 construct: expressed in transfected cells; host or cells: HEK-293 EBNA cells (transient transfection), membrane preparation
T2 sequence (P35462 whole entry): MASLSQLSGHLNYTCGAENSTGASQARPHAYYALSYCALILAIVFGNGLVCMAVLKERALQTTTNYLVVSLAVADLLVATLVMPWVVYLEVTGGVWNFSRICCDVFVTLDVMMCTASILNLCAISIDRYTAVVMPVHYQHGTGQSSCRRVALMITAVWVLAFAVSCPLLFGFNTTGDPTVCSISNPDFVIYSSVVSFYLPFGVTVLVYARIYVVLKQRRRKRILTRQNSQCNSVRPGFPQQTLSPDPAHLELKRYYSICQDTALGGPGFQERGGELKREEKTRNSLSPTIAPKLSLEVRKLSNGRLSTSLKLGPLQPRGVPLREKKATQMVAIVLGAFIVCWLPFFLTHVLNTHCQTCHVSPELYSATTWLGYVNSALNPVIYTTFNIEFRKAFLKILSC
Procedure: as §1, §2, §3, §4

[3] = biological target: T3, human D2 dopamine receptor (Homo sapiens, UniProt P14416); assay: Radioligand binding, human D2 receptor ([3H]-spiperone); details: third value of the cell; membranes of transfected HEK-293 EBNA cells, 0.7 nM [3H]-spiperone; read-out: Ki(nM) D3/5HT2A/D2: D2
T3 construct: expressed in transfected cells; host or cells: HEK-293 EBNA cells (transient transfection), membrane preparation
T3 sequence (P14416 whole entry): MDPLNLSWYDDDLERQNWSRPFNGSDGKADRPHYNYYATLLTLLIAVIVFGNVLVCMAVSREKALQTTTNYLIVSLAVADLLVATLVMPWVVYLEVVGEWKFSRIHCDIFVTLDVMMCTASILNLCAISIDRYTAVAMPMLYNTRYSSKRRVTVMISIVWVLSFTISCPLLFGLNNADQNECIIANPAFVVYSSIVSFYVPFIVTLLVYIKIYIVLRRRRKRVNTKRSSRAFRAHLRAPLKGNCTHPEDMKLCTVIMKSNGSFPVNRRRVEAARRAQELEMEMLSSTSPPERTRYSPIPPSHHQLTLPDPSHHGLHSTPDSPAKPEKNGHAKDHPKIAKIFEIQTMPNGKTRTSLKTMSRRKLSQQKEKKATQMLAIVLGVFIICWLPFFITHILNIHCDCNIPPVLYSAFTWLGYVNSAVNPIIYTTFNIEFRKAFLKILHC
Procedure: as §1, §2, §3, §4

Compound	Ki [1] [nM]	Ki [2]	Ki [3] [nM]
CCOCCC(=O)N[C@H]1CC[C@H](CCN2CCC(C(=O)c3ccc(F)cc3)CC2)CC1 [Example 25, 3-Ethoxy-N-trans (4-{2-[4-(4-fluoro-benzoyl)-piperidin-1-yl]-ethyl}-cyclohexyl)-propionamide]	269	13 nM	777
CN(C)C(=O)N[C@H]1CC[C@H](CCN2CCC(C(=O)c3ccc(F)cc3)CC2)CC1 [Example 42A7, Trans-3-(4-{2-[4-(4-Fluoro-benzoyl)-piperidin-1-yl]-ethyl}-cyclohexyl)-1,1-dimethyl-urea]	26	86 nM	176
O=C(N[C@H]1CC[C@H](CCN2CCC(C(=O)c3ccc(F)cc3)CC2)CC1)c1ccc(-n2cccc2)cc1 [Example 9]	2	6 nM	106
O=C(CO)NC1CCC(CCN2CCC(C(=O)c3ccc(F)cc3F)CC2)CC1 (stereo not drawn) [Example 63A14, N-(4-{2-[4-(2,4-Difluoro-benzoyl)-piperidin-1-yl]-ethyl}-cyclohexyl)-2-hydroxy-acetamide]	83	44 nM	8540
1-(4-Ethoxy-phenyl)-3-{4-[4-(4-fluoro-benzoyl)-piperidin-1-yl]-butyl}-urea [Example 70]	22	97 nM	2710
CN(C(=O)N[C@H]1CC[C@H](CCN2CCC(C(=O)c3ccc(F)cc3)CC2)CC1)c1ccc(Cl)cc1 [Example 42, Trans-1-(4-Chloro-phenyl)-3-(4-{2-[4-(4-fluoro-benzoyl)-piperidin-1-yl]-ethyl}-cyclohexyl)-1-methyl-urea]	11	146 nM	352
CC(=O)N[C@H]1CC[C@H](CCN2CCC(C(=O)c3ccccc3Cl)CC2)CC1 [Example 72, N-trans (4-{2-[4-(2-Chloro-benzoyl)-piperidin-1-yl]-ethyl}-cyclohexyl)-acetamide]	26	39 nM	2130
O=C(N[C@H]1CC[C@H](CCN2CCC(C(=O)c3ccc(F)cc3)CC2)CC1)C1CCCCC1 [Example 29, Cyclohexanecarboxylic acid trans-(4-{2-[4-(4-fluoro-benzoyl)-piperidin-1-yl]-ethyl}-cyclohexyl)-amide]	8	32 nM and 37 nM	450
Cc1nc(-c2cccc(C(=O)N[C@H]3CC[C@H](CCN4CCC(O)(C(=O)c5ccc(F)cc5)CC4)CC3)c2)no1 [Example 57, N-trans (4-{2-[4-(4-Fluoro-benzoyl)-4-hydroxy-piperidin-1-yl]-ethyl}-cyclohexyl)-3-(5-methyl-[1,2,4]oxadiazol-3-yl)-benzamide]	21	53 nM	1330
COC(=O)N[C@H]1CC[C@H](CCN2CCC(C(=O)c3ccc(F)cc3)CC2)CC1 [Example 30A64, Trans (4-{2-[4-(4-Fluoro-benzoyl)-piperidin-1-yl]-ethyl}-cyclohexyl)-carbamic acid methyl ester]	13	19 nM	625
O=C(N[C@H]1CC[C@H](CCN2CCC(C(=O)c3ccc(F)cc3)CC2)CC1)c1ccc(Cl)cc1Cl [Example 22, 2,4-Dichloro-N-trans (4-{2-[4-(4-fluoro-benzoyl)-piperidin-1-yl]-ethyl}-cyclohexyl)-benzamide]	4	15 nM	149
O=C(N[C@H]1CC[C@H](CCN2CCC(F)(C(=O)c3ccccc3)CC2)CC1)c1ccnc2ccccc12 [Example 34, Quinoline-4-carboxylic acid trans-{4-[2-(4-benzoyl-4-fluoro-piperidin-1-yl)-ethyl]-cyclohexyl}-amide]	6	23 nM	192
O=C(N[C@H]1CC[C@H](CCN2CCC(C(=O)c3ccc(F)cc3)CC2)CC1)c1ccc(N2CCOCC2)nn1 [Example 30A25, 6-Morpholin-4-yl-pyridazine-3-carboxylic acid trans (4-{2-[4-(4-fluoro-benzoyl)-piperidin-1-yl]-ethyl}-cyclohexyl)-amide]	5	26 nM	1280
COCCC(=O)N[C@H]1CC[C@H](CCN2CCC(F)(C(=O)c3ccc(F)cc3)CC2)CC1 [Example 50, N-trans (4-{2-[4-Fluoro-4-(4-fluoro-benzoyl)-piperidin-1-yl]-ethyl}-cyclohexyl)-3-methoxy-propionamide]	2	29 nM	288
O=C(CCOc1ccccc1)N[C@H]1CC[C@H](CCN2CCC(C(=O)c3ccc(F)cc3)CC2)CC1 [Example 30A27, N-trans (4-{2-[4-(4-Fluoro-benzoyl)-piperidin-1-yl]-ethyl}-cydohexyl)-3-phenoxy-propionamide]	8	8 nM	1120
CC(=O)OCC(=O)N[C@H]1CC[C@H](CCN2CCC(C(=O)c3ccc(F)cc3)CC2)CC1 [Example 30A58, Acetic acid trans (4-{2-[4-(4-fluoro-benzoyl)-piperidin-1-yl]-ethyl}-cyclohexylcarbamoyl)-methyl ester]	15	30 nM	2070
O=C(NC[C@@H]1C[C@H]1CN1CCC(C(=O)c2ccc(F)cc2)CC1)Nc1ccc(Cl)cc1 (relative stereo) [Example 46, 1-(4-Chloro-phenyl)-3-{Trans-2-[4-(4-fluoro-benzoyl)-piperidin-1-ylmethyl]-cyclopropylmethyl}-urea]	2	15 nM	30
Trans-1-(4-Ethoxy-phenyl)-3-(4-{2-[4-(4-fluoro-benzoyl)-piperidin-1-yl]-ethyl}-cyclohexyl)-urea [Example 40]	9	8 nM	502
O=C(Nc1ccc(Cl)cc1)N[C@H]1CC[C@H](CCN2CCC(C(=O)c3ccc(F)cc3F)CC2)CC1 [Example 64, 1-(4-Chloro-phenyl)-3-trans (4-{2-[4-(2,4-difluoro-benzoyl)-piperidin-1-yl]-ethyl}-cyclohexyl)-urea]	26	4 nM	4000
O=C(N[C@H]1CC[C@H](CCN2CCC(C(=O)c3ccc(F)cc3F)CC2)CC1)C1CCOC1 (relative stereo) [Example 61, Tetrahydro-furan-3-carboxylic acid trans (4-{2-[4-(2,4-difluoro-benzoyl)-piperidin-1-yl]-ethyl}-cyclohexyl)-amide]	64	35 nM	2900
CC(C)(C(=O)N[C@H]1CC[C@H](CCN2CCC(C(=O)c3ccc(F)cc3)CC2)CC1)c1ccc(Cl)cc1 [Example 14, 2-(4-Chloro-phenyl)-N-trans (4-{2-[4-(4-fluoro-benzoyl)-piperidin-1-yl]-ethyl}-cyclohexyl)-isobutyramide]	12	144 nM	96
CC(C)(CO)C(=O)N[C@H]1CC[C@H](CCN2CCC(C(=O)c3ccc(F)cc3)CC2)CC1 [Example 30A29, N-trans (4-{2-[4-(4-Fluoro-benzoyl)-piperidin-1-yl]-ethyl}-cyclohexyl)-3-hydroxy-2,2-dimethyl-propionamide]	25	207 nM	1010
